Assays:
Assay in all cases: relative viability (nuclei count vs DMSO), 5 days (fraction); higher = more cells survive
NCI-H661 = tested on: NCI-H661
In short: (§1)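 Each reported value is a median over duplicate plates. It expresses relative viability: treated-well nuclei count divided by vehicle-well nuclei count. Lung cancer cell lines in 1536-well plates were dosed by pin tool a day after seeding, alone with one drug or with a fixed anchor-drug dose plus five library-drug doses (not always all listed) in √10 steps, and nuclei were counted after 5 days.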

NCI-H727 = tested on: NCI-H727
In short: as §1

NCI-H441 = tested on: NCI-H441
In short: as §1

COR-L23 = tested on: COR-L23
In short: as §1

EKVX = tested on: EKVX
In short: as §1

CAL-12T = tested on: CAL-12T
In short: as §1

BEN = tested on: BEN
In short: as §1

NCI-H2009 = tested on: NCI-H2009
In short: as §1

NCI-H2170 = tested on: NCI-H2170
In short: as §1

NCI-H1666 = tested on: NCI-H1666
In short: as §1

ABC-1 = tested on: ABC-1
In short: as §1

NCI-H1437 = tested on: NCI-H1437
In short: as §1

LU99A = tested on: LU99A
In short: as §1

201T = tested on: 201T
In short: as §1

LK-2 = tested on: LK-2
In short: as §1

SW 900 = tested on: SW 900
In short: as §1

COR-L 105 = tested on: COR-L 105
In short: as §1

NCI-H1650 = tested on: NCI-H1650
In short: as §1

HCC-366 = tested on: HCC-366
In short: as §1

HARA = tested on: HARA
In short: as §1

NCI-H838 = tested on: NCI-H838
In short: as §1

PC-14 = tested on: PC-14
In short: as §1

NCI-H3122 = tested on: NCI-H3122
In short: as §1

Compound: C=C1C(=O)O[C@@H](CCCCCCCC)[C@@H]1C(=O)O [C-75] + Cc1cc(Nc2cc(N3CCN(C)CC3)nc(Sc3ccc(NC(=O)C4CC4)cc3)n2)n[nH]1 [Tozasertib] (partner 0.1 µM)
- relative viability (NCI-H661; first compound 0.08 µM): 0.355
- relative viability (NCI-H661; first compound 0.253 µM): 0.347
- relative viability (NCI-H661; first compound 0.8 µM): 0.334
- relative viability (NCI-H661; first compound 2.53 µM): 0.288
- relative viability (NCI-H661; first compound 8 µM): 0.339
- relative viability (NCI-H727; first compound 0.08 µM): 0.623
- relative viability (NCI-H727; first compound 0.253 µM): 0.623
- relative viability (NCI-H727; first compound 0.8 µM): 0.559
- relative viability (NCI-H727; first compound 8 µM): 0.674
- relative viability (NCI-H441; first compound 0.08 µM): 0.624
- relative viability (NCI-H441; first compound 0.253 µM): 0.895
- relative viability (NCI-H441; first compound 0.8 µM): 0.713
- relative viability (NCI-H441; first compound 2.53 µM): 0.543
- relative viability (NCI-H441; first compound 8 µM): 0.729
- relative viability (COR-L23; first compound 0.08 µM): 0.232
- relative viability (COR-L23; first compound 0.253 µM): 0.267
- relative viability (COR-L23; first compound 0.8 µM): 0.209
- relative viability (COR-L23; first compound 2.53 µM): 0.172
- relative viability (COR-L23; first compound 8 µM): 0.179
- relative viability (EKVX; first compound 0.08 µM): 0.42
- relative viability (EKVX; first compound 0.253 µM): 0.56
- relative viability (EKVX; first compound 0.8 µM): 0.406
- relative viability (EKVX; first compound 8 µM): 0.382
- relative viability (CAL-12T; first compound 0.08 µM): 0.281
- relative viability (CAL-12T; first compound 0.253 µM): 0.423
- relative viability (CAL-12T; first compound 0.8 µM): 0.312
- relative viability (CAL-12T; first compound 2.53 µM): 0.281
- relative viability (CAL-12T; first compound 8 µM): 0.345
- relative viability (BEN; first compound 0.08 µM): 0.494
- relative viability (BEN; first compound 0.253 µM): 0.605
- relative viability (BEN; first compound 0.8 µM): 0.544
- relative viability (BEN; first compound 2.53 µM): 0.484
- relative viability (BEN; first compound 8 µM): 0.612
- relative viability (NCI-H2009; first compound 0.08 µM): 0.724
- relative viability (NCI-H2009; first compound 0.253 µM): 0.743
- relative viability (NCI-H2009; first compound 0.8 µM): 0.743
- relative viability (NCI-H2009; first compound 2.53 µM): 0.707
- relative viability (NCI-H2009; first compound 8 µM): 0.691
- relative viability (NCI-H2170; first compound 0.08 µM): 0.682
- relative viability (NCI-H2170; first compound 0.253 µM): 0.826
- relative viability (NCI-H2170; first compound 0.8 µM): 0.796
- relative viability (NCI-H2170; first compound 2.53 µM): 0.291
- relative viability (NCI-H2170; first compound 8 µM): 0.861
- relative viability (NCI-H1666; first compound 0.08 µM): 0.653
- relative viability (NCI-H1666; first compound 0.253 µM): 0.66
- relative viability (NCI-H1666; first compound 0.8 µM): 0.647
- relative viability (NCI-H1666; first compound 2.53 µM): 0.613
- relative viability (NCI-H1666; first compound 8 µM): 0.499
- relative viability (ABC-1; first compound 0.08 µM): 0.137
- relative viability (ABC-1; first compound 0.253 µM): 0.163
- relative viability (ABC-1; first compound 0.8 µM): 0.198
- relative viability (ABC-1; first compound 2.53 µM): 0.173
- relative viability (ABC-1; first compound 8 µM): 0.183
- relative viability (NCI-H1437; first compound 0.08 µM): 0.387
- relative viability (NCI-H1437; first compound 0.253 µM): 0.462
- relative viability (NCI-H1437; first compound 0.8 µM): 0.442
- relative viability (NCI-H1437; first compound 2.53 µM): 0.355
- relative viability (NCI-H1437; first compound 8 µM): 0.437
- relative viability (LU99A; first compound 0.08 µM): 0.272
- relative viability (LU99A; first compound 0.253 µM): 0.251
- relative viability (LU99A; first compound 0.8 µM): 0.253
- relative viability (LU99A; first compound 2.53 µM): 0.283
- relative viability (LU99A; first compound 8 µM): 0.288
- relative viability (201T; first compound 0.08 µM): 0.985
- relative viability (201T; first compound 0.253 µM): 1.12
- relative viability (201T; first compound 0.8 µM): 1.04
- relative viability (201T; first compound 2.53 µM): 0.932
- relative viability (201T; first compound 8 µM): 1.02
- relative viability (LK-2; first compound 0.08 µM): 0.214
- relative viability (LK-2; first compound 0.253 µM): 0.157
- relative viability (LK-2; first compound 0.8 µM): 0.195
- relative viability (LK-2; first compound 2.53 µM): 0.155
- relative viability (LK-2; first compound 8 µM): 0.19
- relative viability (SW 900; first compound 0.08 µM): 0.595
- relative viability (SW 900; first compound 0.253 µM): 0.919
- relative viability (SW 900; first compound 0.8 µM): 0.571
- relative viability (SW 900; first compound 2.53 µM): 0.704
- relative viability (SW 900; first compound 8 µM): 0.506
- relative viability (COR-L 105; first compound 0.08 µM): 0.366
- relative viability (COR-L 105; first compound 0.253 µM): 0.167
- relative viability (COR-L 105; first compound 0.8 µM): 0.412
- relative viability (COR-L 105; first compound 2.53 µM): 0.351
- relative viability (COR-L 105; first compound 8 µM): 0.341
- relative viability (NCI-H1650; first compound 0.08 µM): 0.413
- relative viability (NCI-H1650; first compound 0.253 µM): 0.647
- relative viability (NCI-H1650; first compound 2.53 µM): 0.422
- relative viability (NCI-H1650; first compound 8 µM): 0.38
- relative viability (HCC-366; first compound 0.08 µM): 0.197
- relative viability (HCC-366; first compound 0.253 µM): 0.151
- relative viability (HCC-366; first compound 0.8 µM): 0.158
- relative viability (HCC-366; first compound 8 µM): 0.115
- relative viability (HARA; first compound 0.08 µM): 0.149
- relative viability (HARA; first compound 0.253 µM): 0.0813
- relative viability (HARA; first compound 0.8 µM): 0.112
- relative viability (HARA; first compound 2.53 µM): 0.0971
- relative viability (HARA; first compound 8 µM): 0.145
- relative viability (NCI-H838; first compound 0.08 µM): 0.311
- relative viability (NCI-H838; first compound 0.8 µM): 0.229
- relative viability (NCI-H838; first compound 2.53 µM): 0.293
- relative viability (NCI-H838; first compound 8 µM): 0.266
- relative viability (PC-14; first compound 0.08 µM): 0.597
- relative viability (PC-14; first compound 0.253 µM): 0.479
- relative viability (PC-14; first compound 0.8 µM): 0.548
- relative viability (PC-14; first compound 2.53 µM): 0.544
- relative viability (PC-14; first compound 8 µM): 0.578
- relative viability (NCI-H3122; first compound 0.08 µM): 0.414
- relative viability (NCI-H3122; first compound 0.253 µM): 0.514
- relative viability (NCI-H3122; first compound 0.8 µM): 0.403
- relative viability (NCI-H3122; first compound 8 µM): 0.518

— the supplement of paper PMC10307832
